Test results published in paper PMC7074381, “Investigating the Antiparasitic Potential of the Marine Sesquiterpene Avarone, Its Reduced Form Avarol, and the Novel Semisynthetic Thiazinoquinone Analogue Thiazoavarone” (Marine Drugs, 2020).
Read-outs that look alike come from different tables or passages of the source.

What was measured:
[1] = system: L. infantum promastigotes (strain MHOM/TN/80/IPT1); assay: promastigote susceptibility MTT assay, L. infantum; format: cell-based; details: for IC50: Leishmania infantum, promastigote stage, 72 h, MTT, mean ± SD of three experiments; for SIp (L. infantum): SIp = IC50 HMEC-1/IC50 L. infantum promastigotes
Experimental: (§1) Promastigote stage of L. infantum strain MHOM/TN/80/IPT1 and L. tropica (MHOM/IT/2012/ISS3130) were cultured in Schneider’s Drosophila medium (Lonza) supplemented with 10% heat-inactivated fetal calf serum (HyClone) at 24 °C.
(§2) The complete medium used for antileishmanial activity assay was RPMI (EuroClone) supplemented with 10% heat-inactivated fetal calf serum (EuroClone), 20 mM Hepes, and 2 mM L-glutamine. To estimate the 50% inhibitory concentration (IC50), the MTT (3-[4.5-dimethylthiazol-2-yl]-2.5-diphenyltetrazolium bromide) method was used. Compounds were dissolved in DMSO and then diluted with medium to achieve the required concentrations. Drugs were placed in 96-well round-bottom microplates and seven serial dilutions made. Amphotericin B was used as the reference anti-leishmanial drug. Parasites were diluted in complete medium to 5 × 10^6 parasites/mL and 100 μL of the suspension was seeded into the plates, incubated at 24 °C for 72 h and then 20 µL of MTT solution (5 mg/mL) was added into each well for 3 h. The plates were then centrifuged, the supernatants discarded and the resulting pellets dissolved in 100 µL of lysing buffer consisting of 20% (w/v) of a solution of SDS (Sigma), 40% of N,N-dimethylformamide (Merck) in H2O. The absorbance was measured spectrophotometrically at a test wavelength of 550 nm and a reference wavelength of 650 nm. The results are expressed as IC50 which is the dose of compound necessary to inhibit parasite growth by 50%; each IC50 value is the mean ± standard deviation of separate experiments performed in duplicate.

[2] = system: Pf gametocytes stage V 3D7elo1-pfs16-CBG99; assay: gametocyte susceptibility assay (luciferase viability); format: cell-based, P. falciparum; details: Plasmodium falciparum, 72 h, mean ± SD of three experiments
Experimental: The transgenic P. falciparum 3D7 strain 3D7elo1-pfs16-CBG99 expressing the Pyrophorus plagiophthalamus CBG99 luciferase under a gametocyte specific promoter was used in all the experiments. Parasites were cultured and gametocytes obtained as previously described. Late-stage gametocytes were exposed to compounds at day 11 after N-acetylglucosamine (NAG) addition. Gametocytes stages were counted in Giemsa stained smears and the percentage of stage V gametocytes was higher than 80%. Compounds were prepared by serial dilution, in 96-well plate, in complete medium. Plates were incubated for 72 h at 37 °C under 1% O2, 5% CO2, 94% N2 atmosphere. Luciferase activity was taken as measure of gametocytes viability, as previously described. Briefly, drug-treated gametocyte samples at 2% haematocrit were transferred to 96-well black microplates and D-luciferin (1 mM in citrate buffer 0.1 M, pH 5.5) was added at a 1:1 volume ratio. Luminescence measurements were performed after 10 min with 500 ms integration time using a Sinergy 4 (Biotek) microplate reader. The IC50 was extrapolated from the non-linear regression analysis of the concentration–response curve.

[3] = system: THP-1 (human acute monocytic leukemia cells); assay: cytotoxicity MTT assay on THP-1 differentiated into macrophages; format: cell-based; details: PMA-differentiated macrophages, mean of two experiments in duplicate
Experimental: (§3) The long-term human microvascular endothelial cell line (HMEC-1) was maintained in MCDB 131 medium (Invitrogen, Milan, Italy) supplemented with 10% fetal calf serum (HyClone, Celbio, Milan, Italy), 10 ng/mL of epidermal growth factor,1 µg/ml of hydrocortisone, 2 mM glutamine and 20 mM Hepes buffer (EuroClone). For the cytotoxicity assays, HMEC-1 were plated at 10^5 cells/mL in 96-well flat bottom microplates. THP-1 cells were plated at 5 × 10^5 cells/mL in 96-well flat bottom microplates and treated with 0.1 μM PMA for 48 h to achieve differentiation into macrophages. Cells were then treated with serial dilutions of test compounds and cell proliferation evaluated using the MTT assay described for promastigotes. The results are expressed as IC50, which is the dose of compound necessary to inhibit cell growth by 50%.

[4] = system: P. falciparum D10 (CQ-sensitive) strain; assay: antiplasmodial pLDH drug susceptibility assay, asexual parasites, D10 strain; format: cell-based; details: for IC50: Plasmodium falciparum, read-out: D10 IC50; for SI D10: SI = IC50 HMEC-1/IC50 P. falciparum D10
Experimental: (§4) P. falciparum cultures were carried out according to Trager and Jensen with slight modifications. The CQ-sensitive strain D10 and the CQ-resistant strain W2 were maintained at 5% hematocrit (human type A-positive red blood cells) in RPMI 1640 (EuroClone, Celbio) medium with the addition of 1% AlbuMax (Invitrogen, Milan, Italy), 0.01% hypoxanthine, 20 mM Hepes, and 2 mM glutamine at 37 °C in a standard gas mixture (1% O2, 5% CO2, and 94% N2). […] Drugs were placed in 96-well flat-bottomed microplates and serial dilutions made. Asynchronous cultures with parasitaemia of 1%–1.5% and 1% final hematocrit were aliquoted into the plates and incubated for 72 h at 37 °C. Parasite growth was determined spectrophotometrically (OD650) by measuring the activity of the parasite lactate dehydrogenase (pLDH), according to a modified version of the method of Makler in control and drug-treated cultures. The antiplasmodial activity is expressed as 50% inhibitory concentrations (IC50); each IC50 value is the mean ± standard deviation of at least three separate experiments performed in duplicate.

[5] = system: HMEC-1 (human microvascular endothelial cells); assay: cytotoxicity MTT assay on HMEC-1; format: cell-based; details: mean ± SD of three experiments in duplicate
Experimental: as §3

L. infantum amastigotes = assay: intracellular amastigote susceptibility assay in THP-1 macrophages; format: cell-based; details: for IC50: Leishmania infantum, intracellular amastigotes in THP-1 macrophages, 72 h, mean of two experiments in triplicate; for SIa: SIa = IC50 HMEC-1/IC50 L. infantum amastigotes
Experimental: Cells were washed and infected with metacyclic L. infantum promastigotes at a macrophage/promastigote ratio of 1/10 for 24 h. Cell monolayers were then washed and incubated in the presence of test compounds for 72 h. Slides were fixed with methanol and stained with Giemsa. The percentage of infected macrophages in treated and non-treated cells was determined by light microscopy.

[6] = system: L. tropica promastigotes (MHOM/IT/2012/ISS3130); assay: promastigote susceptibility MTT assay, L. tropica; format: cell-based; details: for IC50: Leishmania tropica, promastigote stage, 72 h, MTT, mean ± SD of three experiments; for SIp (L. tropica): SIp = IC50 HMEC-1/IC50 L. tropica promastigotes
Experimental: as §1, §2

[7] = system: P. falciparum W2 (CQ-resistant) strain; assay: antiplasmodial pLDH drug susceptibility assay, asexual parasites, W2 strain; format: cell-based; details: for IC50: Plasmodium falciparum, read-out: W2 IC50; for SI W2: SI = IC50 HMEC-1/IC50 P. falciparum W2
Experimental: as §4

[8] = system: S. mansoni in vitro laid eggs (IVLEs); assay: in vitro laid eggs (IVLEs) maturation/morphology assay; format: cell-based; details: 72 h
From the text: (§5) A Puerto Rican strain of S. mansoni was maintained by passage through albino Biomphalaria glabrata, as the intermediate host, and ICR (CD-1) outbred female mice as previously described. Female 4 to 7-week-old mice (Envigo, Udine, Italy) were infected with 200–400 double sex S. mansoni cercariae by the tail immersion technique. Adult pairs were harvested from mice 7–8 weeks after infection by reversed perfusion of the hepatic portal system and mesenteric veins. For the viability assays, 5 couples were incubated with the compounds in 3 mL DMEM complete tissue culture medium containing 10% FBS for up to 7 days and phenotypic score was assigned as previously described. For egg-treatment, 5 worm pairs were incubated for 48 h in 3 mL complete tissue culture medium; next the parasites were removed and vehicle (DMSO) or compounds 1–3 were added to each plate containing the eggs previously laid in vitro and observed for 72 h as previously reported. Briefly, images were recorded with a BX41 Olympus microscope and a bright field objective 10× served by a SPOT RT 220-3 Diagnostic Instrument Inc camera. Egg maturation/morphological score was assigned based on the Vogel and Prata’ staging system of egg maturation.

[9] = system: S. mansoni adult worm pairs; assay: adult worm pair viability assay (phenotypic score); format: cell-based; details: 20 μM, 7 days
From the text: as §5

[10] = asexual parasites, CQ-sensitive D10 strain, 72 h, pLDH, mean ± SD of three experiments in duplicate
[11] = asexual parasites, CQ-resistant W2 strain, 72 h, pLDH, mean ± SD of three experiments in duplicate

With `CC1=CCC[C@H]2[C@](C)(CC3=CC(=O)C=CC3=O)[C@@H](C)CC[C@]12C` [Avarone (1), avarone] the IC50 [1] was 28.2 ± 0.32 µM, the “SIp (L. infantum)” value [1] was 2.2 and the IC50 [2] was 15.5 ± 5.26 µM. For the same compound, the IC50 [3] was greater than 100 µM, the IC50 [4, 10] was 2.74 ± 0.51 µM and the “SI D10” value [4] was 22.7. The IC50 [5] was 62.2 ± 1.98 µM, the IC50 (L. infantum amastigotes) was 7.64 µM and the SIa (L. infantum amastigotes) was 8.1. The IC50 [6] was 20.3 ± 3.56 µM, the “SIp (L. tropica)” value [6] was 3.1 and the IC50 [7, 11] was 2.09 ± 0.52 µM. The “SI W2” value [7] was 29.8.
`CC[C@@]1(O)C(=O)OCc2c1cc1n(c2=O)Cc2cc3ccccc3nc2-1` [Camptothecin, reference compound] gave an IC50 [5] of 0.018 µM.
`C[C@@H]1[C@H](O)[C@@H](C)/C=C/C=C/C=C/C=C/C=C/C=C/C=C/[C@H](O[C@@H]2O[C@H](C)[C@@H](O)[C@H](N)[C@@H]2O)C[C@@H]2O[C@](O)(C[C@@H](O)C[C@@H](O)[C@H](O)CC[C@@H](O)C[C@@H](O)CC(=O)O[C@H]1C)C[C@H](O)[C@H]2C(=O)O` [Amphotericin B, reference compound] showed an IC50 [1] of 0.2 ± 0.03 µM, an IC50 (L. infantum amastigotes) of 0.189 µM and an IC50 [6] of 0.17 ± 0.04 µM.
`CC1=CCC[C@H]2[C@](C)(CC3=CC(=O)C4=C(C3=O)S(=O)(=O)CCN4)[C@@H](C)CC[C@]12C` [Thiazoavarone (2), thiazoavarone] was tested, and the IC50 [1] was 8.78 ± 0.26 µM, the “SIp (L. infantum)” value [1] was 0.38 and the “effect on egg maturation (IVLEs)” value ([8]; 5 μM) was “impairing eggs maturation”. For the same compound, the “effect on egg maturation (IVLEs)” value ([8]; 20 μM) was “undeveloped and severely damaged eggs”, the IC50 [2] was 15 ± 3.19 µM and the IC50 [3] was 7.41 µM. The IC50 [4, 10] was 0.38 ± 0.15 µM, the “SI D10” value [4] was 8.7 and the IC50 [5] was 3.31 ± 1.53 µM. For the same compound, the IC50 (L. infantum amastigotes) was 4.99 µM, the SIa (L. infantum amastigotes) was 0.67 and the IC50 [6] was 9.52 ± 0.32 µM. The “SIp (L. tropica)” value [6] was 0.35, the “effect on adult stage viability” value [9] was “poorly effective” and the IC50 [7, 11] was 0.21 ± 0.03 µM. For the same compound, the “SI W2” value [7] was 15.8.
`CCN(CC)CCCC(C)Nc1ccnc2cc(Cl)ccc12` (stereo not drawn) [Chloroquine (CQ), Chloroquine, reference compound] gave an IC50 ([4]; D10, 72 h) of 0.04 µM and an IC50 ([7]; W2, 72 h) of 0.54 µM.
In the case of `CN(C)c1ccc2nc3ccc(=[N+](C)C)cc-3sc2c1` [Methylene blue, reference compound], the IC50 [2] is reported as 0.155 ± 0.05 µM.
In the case of `CC1=CCC[C@H]2[C@](C)(Cc3cc(O)ccc3O)[C@@H](C)CC[C@]12C` [Avarol (3), avarol], the IC50 [1] is reported as 7.42 ± 0.27 µM, the “SIp (L. infantum)” value [1] is reported as 5.0 and the IC50 [2] is reported as 9.3 ± 1.9 µM. The IC50 [3] was 31.8 µM, the IC50 [4, 10] was 0.96 ± 0.24 µM and the “SI D10” value [4] was 38.4. The IC50 [5] was 36.9 ± 5.79 µM, the IC50 (L. infantum amastigotes) was 3.19 µM and the SIa (L. infantum amastigotes) was 11.6. The SIa (L. infantum amastigotes; listed as avarol 3) was “greater than 10”, the IC50 [6] was 7.08 ± 1.91 µM and the “SIp (L. tropica)” value [6] was 5.2. For the same compound, the “survival of adult worm pairs” value [9] was 20%, the IC50 [7, 11] was 1.1 ± 0.15 µM and the “SI W2” value [7] was 33.5.
